# Measured values as given in patent US8138176B2, “Imidazo compounds” (Novartis AG, priority 2006, dated 2012).
# System: plasma aldosterone and corticosterone levels
# Assay: Suppression of plasma aldosterone and corticosterone levels in ACTH-stimulated rats
# Format: in vivo, Wistar rats
# Settings: rat plasma, 4 mg/kg p.o., 2 h after dosing vs 1 h before dosing
# Procedure: The aldosterone- and corticosterone-suppressing activity of herein described compounds may be assessed with the following in vivo protocol.
# Adult male Wistar rats weighing between 250 and 350 grams are kept under the usual 12 hour light and 12 hour dark conditions at a temperature of 23° C.±2° C. On the first day of the experiment, the animals receive a subcutaneous injection of a depot ACTH product in a dose of 1.0 mg/kg weight (SYNACTHEN-Depot, Novartis, Basel, CH) 16 hours prior to the administration of a test compound. […] An alternative method to stimulate aldosterone secretion consists in subjecting rats to a low salt diet for 48 hours and applying the diuretic furosemide at 10 mg/kg by subcutaneous or intraperitoneal administration 16 hours, respectively 2 hours prior to the start of the experiment. On the second day of the experiment, the animals are divided into test groups of 5 animals and subjected to a first bleed 1 hour prior to the administration of test compound. Subsequently, and 16 hours after the injection of the ACTH product, the animals receive either vehicle or test compound dissolved in vehicle in a variable dose range from 0.02 to 20 mg/kg by oral gavage. The animals are bled two more times from the vena subclavia under isoflurane anaesthesia 2 and 6 hours after dosing. The blood is collected in heparin-treated tubes. The plasma samples are obtained by centrifugation and stored at −20° C. An alternative method to bleed animals time-dependently consists in using animals that are chronically carotid catheterized which allows the periodical sampling of up to 0.2 ml of blood using an AccuSampler (DiLab Europe, Lund, Sweden). The blood sampling with the AccuSampler may occur 1 hour prior to the administration of a test compound and 2, 4, 6, 8, 12, 16 and 24 hours thereafter. The blood samples are anticoagulated with heparin and centrifuged. The aldosterone and corticosterone concentrations of the plasma samples can be determined with a radioimmunoassay as described above for the in vitro test systems.
# The selective suppression of plasma steroid levels as for instance aldosterone in comparison to corticosterone may serve as a measure for in vivo bioavailability and pharmacodynamic enzyme inhibitory activity of the herein described compounds. The evaluation of the data may occur relative to the application of vehicle or quantitatively by determination of the area under the curve (AUC).
SMILES,Aldosterone levels (% change at 2 h) [% change],Corticosterone levels (% change at 2 h) [% change]
CC(=O)c1ccc(C2COCc3cncn32)cc1 (stereo not shown) [Example 16],−67,−9
"Fc1ccc(C2COCc3cncn32)cc1 (stereo not shown) [Example 14, 5-(4-Fluorophenyl)-5,6-dihydro-8H-imidazo[5,1-c][1,4]oxazine]",−58,−7
